Measurements: ChEMBL document CHEMBL1201862, “PubChem BioAssay data set” (2004)
Several values for one entry are separate records, joined by “and”; a condition that tells them apart may be missing. Equal entries are not always repeated.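 A five-concentration, 48-hour dose response in 96-well plates underlies each endpoint, interpolated linearly between surrounding concentrations. At the GI50, growth is halved.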 Activity calls are given as the source filed them. No stated cut-off is given here; in the data, active = GI50 up to about 1.1 µM and inactive = higher. Non-standard residues stand in square brackets, D forms with d. Residues, ends and D or L forms follow the SMILES beside them. ξ: configuration not given here. *: point of attachment. ξF = NC(Cc1ccccc1)C(=O)O; Cbz = O=C(OCc1ccccc1)*; Aib = CC(C)(N)C(=O)O

How the values were obtained:
Test in all cases: NCI anticancer screen, dose series, 48 h
MCF7 = test system: MCF7
NCI/ADR-RES = test system: NCI/ADR-RES
A498 = test system: A498
DMS-114 = test system: DMS-114
NCI-H226 = test system: NCI-H226
UACC-257 = test system: UACC-257
HOP-92 = test system: HOP-92
NCI-H23 = test system: NCI-H23
KM-20L2 = test system: KM-20L2
SK-MEL-28 = test system: SK-MEL-28
XF498 = test system: XF498
SNB-75 = test system: SNB-75
CAKI-1 = test system: CAKI-1
SR = test system: SR
PC-3 = test system: PC-3
MDA-MB-231 = test system: MDA-MB-231
MDA-MB-435 = test system: MDA-MB-435
T47D = test system: T47D
786-0 = test system: 786-0
Hs-578T = test system: Hs-578T

Row | Compound | GI50 (MCF7) | GI50 (NCI/ADR-RES) | GI50 (A498) | GI50 (DMS-114) | GI50 (NCI-H226) | GI50 (UACC-257) | GI50 (HOP-92) | GI50 (NCI-H23) | GI50 (KM-20L2) | GI50 (SK-MEL-28) | GI50 (XF498) | GI50 (SNB-75) | GI50 (CAKI-1) | GI50 (SR) | GI50 (PC-3) | GI50 (MDA-MB-231) | GI50 (MDA-MB-435) | GI50 (T47D) | GI50 (786-0) | GI50 (Hs-578T)
1 | Nc1ccn(C2OC(COP(=O)(O)Oc3ccccc3)C(O)C2O)c(=O)n1 (stereo not drawn) | 13 µM (inactive) | 16.7 µM (inactive) | 4.06 µM (inactive) | 13.7 µM (inactive) | > 100 µM (inactive) | > 95.9 µM (inactive) | 18.6 µM (inactive) | 7.36 µM (inactive) | > 39.7 µM (inactive) | 9.38 µM (inactive) | < 0.01 µM (active) | > 100 µM (inactive) | 24.5 µM (inactive) |  |  |  |  |  |  | 
2 | C=CCCCC12CCCc3cccc(c31)NC2=O (stereo not drawn) |  |  | 19.6 µM (inactive) | 17.3 µM (inactive) | 20.6 µM (inactive) | 22.1 µM (inactive) | 13.8 µM (inactive) | 18.1 µM (inactive) | 21.2 µM (inactive) |  | 20.6 µM (inactive) |  |  | 20.8 µM (inactive) |  |  |  |  |  | 
3 | CCOC(=O)CNC(=O)C(Cc1ccccc1)NC(=O)C(C)(C)NC(=O)OCc1ccccc1 (stereo not drawn) (Cbz-[Aib]-[ξF]-Gly-OEt) | > 100 µM (inactive) | > 100 µM (inactive) | > 100 µM (inactive) |  |  | 33.1 µM (inactive) | > 100 µM (inactive) |  |  | 17.9 µM (inactive) |  |  | > 100 µM (inactive) | 30.3 µM (inactive) | > 100 µM (inactive) | > 100 µM (inactive) | 67.3 µM (inactive) | 77.8 µM (inactive) |  | 
4 | CCN(CC)CCn1c(=O)c2c(C)c3oc4ccccc4oc3c(C)c2c1=O | > 100 µM (inactive) | > 100 µM (inactive) | > 100 µM (inactive) |  | > 100 µM (inactive) | > 100 µM (inactive) | > 100 µM (inactive) |  |  |  |  | > 100 µM (inactive) | > 100 µM (inactive) |  | > 100 µM (inactive) | > 100 µM (inactive) | > 100 µM (inactive) |  | 48.2 µM (inactive) | > 100 µM (inactive)
5 | C/C(CCOC1CCCCO1)=C(\C)[Si](C)(C)C (stereo not drawn) |  |  | > 100 µM (inactive) | > 100 µM (inactive) |  | > 100 µM (inactive) | > 100 µM (inactive) | > 100 µM (inactive) | > 100 µM (inactive) | > 100 µM (inactive) | > 100 µM (inactive) | > 100 µM (inactive) |  | > 100 µM (inactive) |  |  |  |  |  | 
6 | O=C(Nc1nnc(S)[nH]1)C(=O)C(c1cnc2ccc([N+](=O)[O-])cc2n1)[N+](=O)[O-] (stereo not drawn) |  |  | > 100 µM (inactive) | 47 µM (inactive) | > 100 µM (inactive) | > 100 µM (inactive) | > 100 µM (inactive) | > 100 µM (inactive) | 81.3 µM (inactive) | > 100 µM (inactive) | > 100 µM (inactive) | > 100 µM (inactive) | > 100 µM (inactive) | > 100 µM (inactive) |  |  |  |  | > 100 µM (inactive) | 
7 | COc1ccc(N2C(=O)C(=O)N(C)C2=O)c2ccccc12 | > 10 µM (inactive) | > 10 µM (inactive) | > 10 µM (inactive) |  | > 10 µM (inactive) |  |  | > 10 µM (inactive) |  | > 10 µM (inactive) |  | > 10 µM (inactive) | > 10 µM (inactive) | > 10 µM (inactive) | > 10 µM (inactive) | > 10 µM (inactive) | > 10 µM (inactive) | > 10 µM (inactive) |  | > 10 µM (inactive)
8 | c1cc(CNC2C3CCC(C3)C2c2c[nH]c3ccccc23)cc(CNC2C3CCC(C3)C2c2c[nH]c3ccccc23)c1 (stereo not drawn) | 0.205 µM (active) |  |  |  | 2 µM (inactive) and 2.07 µM (inactive) |  |  | 1.68 µM (inactive) and 1.77 µM (inactive) |  |  |  | 752 nM (active) and 1.3 µM (inactive) | 1.65 µM (inactive) and 1.73 µM (inactive) | 258 nM (active) and 186 nM (active) | 1.6 µM (inactive) and 1.64 µM (inactive) | 1.59 µM (inactive) and 1.51 µM (inactive) | 658 nM (active) and 637 nM (active) | 1.75 µM (inactive) and 1.74 µM (inactive) |  | 1.43 µM (inactive) and 1.62 µM (inactive)
9 | CC1(C)Cc2nnsc2C2=C1C(=O)CCS2 |  |  |  | > 100 µM (inactive) |  | > 100 µM (inactive) | 32.7 µM (inactive) | > 100 µM (inactive) | > 100 µM (inactive) | > 100 µM (inactive) |  | 24 µM (inactive) | > 100 µM (inactive) |  |  |  |  |  | > 100 µM (inactive) | 
10 | O=c1sc2ccccc2n1CC1CS1 (stereo not drawn) |  |  |  | > 100 µM (inactive) | > 100 µM (inactive) |  | > 100 µM (inactive) |  | > 100 µM (inactive) | > 100 µM (inactive) | > 100 µM (inactive) |  | > 100 µM (inactive) | > 100 µM (inactive) |  |  |  |  |  | 
11 | C[n+]1cccc2c(=O)c3ccccc3oc21 | > 100 µM (inactive) | > 100 µM (inactive) | > 100 µM (inactive) |  | > 100 µM (inactive) |  | > 100 µM (inactive) | > 100 µM (inactive) |  | > 100 µM (inactive) |  | > 100 µM (inactive) | > 100 µM (inactive) | > 100 µM (inactive) | > 100 µM (inactive) | > 100 µM (inactive) | > 100 µM (inactive) | > 100 µM (inactive) |  | > 100 µM (inactive)
12 | COc1ccc(-n2cnnc2-c2nsc3ccccc23)cc1 |  |  |  | > 100 µM (inactive) |  | > 100 µM (inactive) | 45.1 µM (inactive) | 95.3 µM (inactive) | > 100 µM (inactive) | 78.2 µM (inactive) |  | 22.2 µM (inactive) |  | > 100 µM (inactive) |  |  |  |  |  | 
13 | O=c1[nH]c(=S)[nH]c2c(C3OC(CO)C(O)C3O)nsc12 (stereo not drawn) | > 100 µM (inactive) | > 100 µM (inactive) | > 100 µM (inactive) |  | > 100 µM (inactive) | > 100 µM (inactive) | > 100 µM (inactive) |  |  | > 100 µM (inactive) |  | > 100 µM (inactive) | > 100 µM (inactive) | > 10 µM (inactive) | > 100 µM (inactive) |  | > 100 µM (inactive) | > 100 µM (inactive) |  | > 100 µM (inactive)
14 | COc1ccc(N2C(=O)C(=O)C3(CCCCC3)C2=O)c2ccccc12 | > 10 µM (inactive) | > 10 µM (inactive) | > 10 µM (inactive) |  | > 10 µM (inactive) |  |  | > 10 µM (inactive) |  | > 10 µM (inactive) |  | > 10 µM (inactive) | > 10 µM (inactive) | > 10 µM (inactive) | > 10 µM (inactive) | > 10 µM (inactive) | > 10 µM (inactive) | > 10 µM (inactive) |  | > 10 µM (inactive)
